Reference: patent US8575360B2, “Derivatives of 6,7-dihydro-5H-imidazo[1,2-a]imidazole-3-carboxylic acid amides” (Boehringer Ingelheim International GmbH, priority 2009, dated 2013)

target: T1, LFA-1 (CD18/CD11a) binding to ICAM-1 (Homo sapiens, UniProt P05107+P20701); assay: LFA-1/Biotin-sICAM-1 AlphaScreen assay: inhibition of LFA-1 binding to ICAM-1; conditions: 37° C. 90 minutes, highest compound concentration 1 μM
T1 construct: followed by purified LFA-1 (in buffer of 50 mM triethylamine, 150 mM NaCl, 1% beta octylglucoside)
Excerpt: Assay to Determine Inhibition of LFA-1 Binding to ICAM-1
This assay protocol is designed to study the direct antagonism, by a test compound, of the interaction of ICAM-1 with the Leukointegrin CD18/CD11a (LFA-1).
The LFA-1/Biotin-sICAM-1 molecular assay measures the ability of test compounds to inhibit binding of LFA-1 to Biotinylated-sICAM using AlphaScreen technology (Ref: Wilson, J, Rossi, C P, Carboni, S, Fremaux, C, Perrin, D, Soto, C, Kosco-Vilbois, M, and Scheer, A: A Homogeneous 384-Well High-Throughput Binding Assay for a TNF Receptor Using Alphascreen Technology. J Biomol Screen 2003; 8:522-532) that uses TS2/4(anti-LFA-1)-custom conjugated AlphaLisa acceptor beads and streptavidin-coated donor beads from PerkinElmer. The assay was performed in white OptiPlates-384 in a volume of 60 μL using assay buffer (Dulbecco's PBS containing calcium and magnesium, 2 mM MgCl2, 0.1 mM PMSF, 0.1% BSA, pH 7.1). To each well, Biotin-sICAM was added followed by purified LFA-1 (in buffer of 50 mM triethylamine, 150 mM NaCl, 1% beta octylglucoside, 2 mM MgCl2 neutralized to pH with 1M Tris-HCl, pH 7.5). For compound testing, compound was added in 5 uL to the above in 25 uL. LFA-1 and Biotin-sICAM-1 were used at concentrations that would yield a signal to background ratio of 8-10. The highest concentration of compound was 1 μM in 1% DMSO. Positive controls were wells without compound containing LFA-1, while blanks were wells without both compound and LFA-1. Plates were mixed and incubated at 37° C. for 90 minutes. This was followed by addition of 15 μL/well TS2/4-conjugated acceptor beads diluted in PBS containing 0.1% BSA for a final concentration of 10 μg/mL. The plates were mixed and incubated in the dark for 30 minutes at room temperature followed by addition of 15 μL/well streptavidin-coated donor beads diluted in PBS containing 0.1% BSA at a final concentration of 15 μg/mL. The plates were mixed and incubated in the dark for 60 minutes at room temperature and then read on an EnVision Multilabel Reader using AlphaScreen 384-well OptiPlate protocol.

T1 sequence (P20701 26-1170): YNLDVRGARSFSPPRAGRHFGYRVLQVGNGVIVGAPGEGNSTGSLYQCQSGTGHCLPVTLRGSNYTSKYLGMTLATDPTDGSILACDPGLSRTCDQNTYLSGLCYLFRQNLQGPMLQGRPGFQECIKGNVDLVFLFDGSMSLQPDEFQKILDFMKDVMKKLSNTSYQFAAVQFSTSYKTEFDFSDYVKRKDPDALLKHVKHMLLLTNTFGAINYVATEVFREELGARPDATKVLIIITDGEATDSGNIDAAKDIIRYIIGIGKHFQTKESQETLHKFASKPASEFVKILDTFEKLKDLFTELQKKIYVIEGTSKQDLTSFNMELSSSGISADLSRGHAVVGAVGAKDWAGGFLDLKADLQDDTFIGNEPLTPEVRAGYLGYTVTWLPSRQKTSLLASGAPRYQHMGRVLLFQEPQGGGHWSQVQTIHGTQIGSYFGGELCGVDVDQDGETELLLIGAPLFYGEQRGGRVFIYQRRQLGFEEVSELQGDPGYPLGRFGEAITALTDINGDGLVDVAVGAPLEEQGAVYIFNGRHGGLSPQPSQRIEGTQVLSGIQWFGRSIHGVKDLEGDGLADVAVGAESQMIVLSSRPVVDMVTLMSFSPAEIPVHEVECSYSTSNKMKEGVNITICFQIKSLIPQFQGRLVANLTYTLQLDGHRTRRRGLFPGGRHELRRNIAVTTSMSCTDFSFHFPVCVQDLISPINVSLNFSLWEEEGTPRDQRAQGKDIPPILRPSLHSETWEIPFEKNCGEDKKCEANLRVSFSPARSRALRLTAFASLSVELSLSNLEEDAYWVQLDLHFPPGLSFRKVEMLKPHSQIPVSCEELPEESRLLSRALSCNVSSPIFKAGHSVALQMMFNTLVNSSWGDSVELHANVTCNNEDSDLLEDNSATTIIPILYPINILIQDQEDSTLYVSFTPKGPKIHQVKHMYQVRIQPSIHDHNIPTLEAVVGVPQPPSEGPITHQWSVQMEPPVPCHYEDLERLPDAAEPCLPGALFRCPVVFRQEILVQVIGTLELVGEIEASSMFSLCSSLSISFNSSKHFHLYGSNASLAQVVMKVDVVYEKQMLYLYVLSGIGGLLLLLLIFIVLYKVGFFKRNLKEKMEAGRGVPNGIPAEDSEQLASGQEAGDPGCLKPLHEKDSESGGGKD
T1 sequence (P05107 23-769 partner): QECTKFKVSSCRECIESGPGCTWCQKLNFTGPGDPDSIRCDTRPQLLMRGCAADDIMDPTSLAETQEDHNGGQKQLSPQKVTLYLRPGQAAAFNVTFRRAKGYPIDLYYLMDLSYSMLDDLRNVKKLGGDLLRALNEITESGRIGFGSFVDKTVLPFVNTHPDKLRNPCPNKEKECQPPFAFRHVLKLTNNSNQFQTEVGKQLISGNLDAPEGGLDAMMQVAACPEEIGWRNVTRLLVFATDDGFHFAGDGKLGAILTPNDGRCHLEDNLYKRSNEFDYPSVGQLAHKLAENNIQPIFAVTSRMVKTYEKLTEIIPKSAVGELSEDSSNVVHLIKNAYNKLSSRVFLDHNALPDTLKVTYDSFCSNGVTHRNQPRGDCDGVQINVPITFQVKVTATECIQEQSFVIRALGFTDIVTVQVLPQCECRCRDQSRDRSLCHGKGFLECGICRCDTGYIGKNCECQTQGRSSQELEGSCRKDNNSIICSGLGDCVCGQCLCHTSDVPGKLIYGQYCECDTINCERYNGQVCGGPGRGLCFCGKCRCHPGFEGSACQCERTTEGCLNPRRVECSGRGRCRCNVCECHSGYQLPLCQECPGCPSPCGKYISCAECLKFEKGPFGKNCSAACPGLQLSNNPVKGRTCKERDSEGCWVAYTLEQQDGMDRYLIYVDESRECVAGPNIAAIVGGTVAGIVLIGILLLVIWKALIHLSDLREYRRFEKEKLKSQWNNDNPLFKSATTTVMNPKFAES

`C[C@@]1(Cc2ccc(C#N)cc2)C(=O)N(c2cc(Cl)c(F)c(Cl)c2)c2ncc(C(=O)NC3(C(=O)NC4(c5ccc(-c6ccc(O)cc6)cn5)CC4)CC3)n21` [Compound 2] and `C[C@@]1(Cc2ccc(C#N)cc2)C(=O)N(c2cc(Cl)c(F)c(Cl)c2)c2ncc(C(=O)NC3(C(=O)NC4(c5ncc(-c6ccc(O)cc6)cn5)CC4)CC3)n21` [Compound 34] are within 1.5-fold of each other in IC50: 1.1 nM for the first, 1 nM for the second.

`C[C@@]1(Cc2ccc(C#N)cc2)C(=O)N(c2cc(Cl)c(F)c(Cl)c2)c2ncc(C(=O)NC3(C(=O)NC4(c5ccc6cc(-c7cn[nH]c7)cnc6n5)CCC4)CC3)n21` [Compound 10] and `C[C@@]1(Cc2ccc(C#N)cc2)C(=O)N(c2cc(Cl)c(F)c(Cl)c2)c2ncc(C(=O)NC3(C(=O)NC4(c5ccc(-c6cn[nH]c6)cn5)CC4)CC3)n21` [Compound 11] are within 1.5-fold of each other in IC50: 1 nM for the first, 1.2 nM for the second.

First: Cn1ncc(-c2ccc(C3(NC(=O)C4(NC(=O)c5cnc6n5[C@](C)(Cc5ccc(C#N)cc5)C(=O)N6c5cc(Cl)c(F)c(Cl)c5)CC4)CC3)nc2)c1C1CC1 [Compound 13]
Second: Cn1cc(-c2ccc(C3(NC(=O)C4(NC(=O)c5cnc6n5[C@](C)(Cc5ccc(C#N)cc5)C(=O)N6c5cc(Cl)c(F)c(Cl)c5)CC4)CC3)nc2)c(C2CC2)n1 [Compound 14]
The IC50 of the first is 1.6-fold higher: 1.8 nM for the first, 1.1 nM for the second.

Going from `Cn1cc(-c2ccc(C3(NC(=O)C4(NC(=O)c5cnc6n5[C@](C)(Cc5ccc(C#N)cc5)C(=O)N6c5cc(Cl)c(F)c(Cl)c5)CC4)CC3)nn2)c(C2CC2)n1` [Compound 15] to `Cn1cc(-c2ccc(C3(NC(=O)C4(NC(=O)c5cnc6n5[C@](C)(Cc5ccc(C#N)cc5)C(=O)N6c5cc(Cl)c(F)c(Cl)c5)CC4)CC3)nn2)cn1` [Compound 35], the IC50 falls from 1.6 nM to 0.48 nM (3.3-fold). The second is the more potent here.

`C[C@@]1(Cc2ccc(C#N)cc2)C(=O)N(c2cc(Cl)c(F)c(Cl)c2)c2ncc(C(=O)NC3(C(=O)NC4(c5ccc(-c6ccc7nccn7c6)cn5)CC4)CC3)n21` [Compound 16] and `Cc1ccc(-c2ccc(C3(NC(=O)C4(NC(=O)c5cnc6n5[C@](C)(Cc5ccc(C#N)cc5)C(=O)N6c5cc(Cl)c(F)c(Cl)c5)CC4)CC3)nc2)cn1` [Compound 18] are within 1.5-fold of each other in IC50: 1 nM for the first, 1.4 nM for the second.

`C[C@@]1(Cc2ccc(OC(F)(F)F)cc2)C(=O)N(c2cc(Cl)c(F)c(Cl)c2)c2ncc(C(=O)NC3(C(=O)NC4(c5ccc(-c6ccc(N)nc6)cn5)CC4)CC3)n21` [Compound 20] and `Cn1cc(-c2cnc(C3(NC(=O)C4(NC(=O)c5cnc6n5[C@](C)(Cc5ccc(OC(F)(F)F)cc5)C(=O)N6c5cc(Cl)c(F)c(Cl)c5)CC4)CC3)nc2)cn1` [Compound 40, (R)-7-(3,5-Dichloro-4-fluoro-phenyl)-5-methyl-6-oxo-5-(4-trifluoromethoxy-benzyl)-6,7-dihydro-5H-imidazo[1,2-a]imidazole-3-carboxylic acid(1-{1-[5-(1-methyl-1H-pyrazol-4-yl)-pyrimidin-2-yl]-cyclopropylcarbamoyl}-cyclopropyl)-amide] are within 1.5-fold of each other in IC50: 1.5 nM for the first, 1.7 nM for the second.

First: Cc1ccc(-c2ccc(C(C)NC(=O)C(NC(=O)c3cnc4n3C(C)(Cc3ccc(C#N)cc3)C(=O)N4c3cc(Cl)c(F)c(Cl)c3)C(C)O)nc2)cn1 (stereo not drawn) [Compound 30]
Second: C[C@@]1(Cc2ccc(C#N)cc2)C(=O)N(c2cc(Cl)c(F)c(Cl)c2)c2ncc(C(=O)NC3(C(=O)NC4(c5ncc(-c6ccc(CO)cc6)cn5)CC4)CC3)n21 [Compound 32]
The IC50 of the first is 2.3-fold lower: 0.61 nM for the first, 1.4 nM for the second.

`Cn1cc(-c2cnc(C3(NC(=O)C4(NC(=O)c5cnc6n5[C@](C)(Cc5ccc(C#N)cc5)C(=O)N6c5cc(Cl)c(F)c(Cl)c5)CC4)CC3)nc2)cn1` [Compound 31] and `C[C@@]1(Cc2ccc(C#N)cc2)C(=O)N(c2cc(Cl)c(F)c(Cl)c2)c2ncc(C(=O)NC3(C(=O)NC4(c5ncc(-c6cn[nH]c6)cn5)CC4)CC3)n21` [Compound 33] are within 1.5-fold of each other in IC50: 0.51 nM for the first, 0.57 nM for the second.

Going from `C[C@@]1(Cc2ccc(C#N)cc2)C(=O)N(c2cc(Cl)c(F)c(Cl)c2)c2ncc(C(=O)NC3(C(=O)NC4(c5ccc(-c6ccc(CO)cc6)nn5)CC4)CC3)n21` [Compound 37] to `CC1(Cc2ccc(C#N)cc2)C(=O)N(c2cc(Cl)c(F)c(Cl)c2)c2ncc(C(=O)NC3(C(=O)NC4(c5ccc(-c6cnn(C7CC7)c6)cn5)CC4)CC3)n21` (stereo not drawn) [Compound 38], the IC50 rises from 0.89 nM to 1.7 nM (1.9-fold).
